# Data: paper PMC6981454, “Promising 2,6,9-Trisubstituted Purine Derivatives for Anticancer Compounds: Synthesis, 3D-QSAR, and Preliminary Biological Assays” (International Journal of Molecular Sciences, 2019)
# Where two headings read alike, the source gives them in different places.
# What was measured:
# Format in all cases: cell-based, human
# CFPAC-1 = test: MTT cytotoxicity assay, 72 h
# Experimental: (§1) In our study, the human cancer cell lines used were CFAPC- 1 (pancreatic adenocarcinoma); NCI-H460 (large cell lung); HL-60 (acute promyelocytic leukaemia); CACO2 (colorectal adenocarcinoma); HCT-116 (colorectal carcinoma); K562 (chronic myeloid leukaemia); MCF-7 (breast adenocarcinoma); and MRC-5 control cells (normal fibroblasts).
# (§2) CFAPC-1, NCI-H460 H1975, HL-60, HCT-116, CACO2, K562, MCF-7, and MCR-5 were grown and maintained in RPMI 1640 and DMEM F12 as appropriate with 10% fetal bovine serum, 100 UI/mL penicillin–streptomycin, and cultured al 37 °C in 5% CO2 humidified atmosphere. Control cultures were treated with dimethyl sulfoxide (1%) alone at the same concentration as in the purine derivatives treatment. Cell viability was determined by trypan blue dye exclusion. Cell numbers were counted in hemocytometer by light microscopy.
# (§3) Cytotoxicity assays were performed by using the MTT reduction method as described in the literature. Briefly, cancer cell lines were plated in a flat-bottom 96-wells plate at 1 × 10^4 cells per well density. Then, the cells were incubated with synthetized compounds at different concentrations (from 0.1 to 100 µM) in 200 µL of 10% fetal bovine serum-RPMI or EMEM culture medium at 37 °C for 72 h. Then, 10 µL of MTT was added at a final concentration of 0.5 mg/mL, incubated at 37 °C for 4 h, and then solubilized with 10% sodium dodecyl sulphate (SDS) in 0.1 mM HCl and incubated overnight at 37 °C. Formazan formation was measured at 570 nm in a multi-well reader (StatFax 4200).
# HCT-116 = test: MTT cytotoxicity assay, 72 h
# Experimental: as §1, §2, §3
# HL-60 = test: MTT cytotoxicity assay, 72 h; conditions: for Experimental pIC50 (HL-60): -logIC50 in molar concentration; for Selectivity Index (SI) MRC-5/HL-60: IC50 in MRC-5 / IC50 in HL-60
# Experimental: as §1, §2, §3
# K562 = test: MTT cytotoxicity assay, 72 h; conditions: for IC50: MTT, 72 h, IC50 ± SD; for Selectivity Index (SI) MRC-5/K562: IC50 in MRC-5 / IC50 in K562
# Experimental: as §1, §2, §3
# MCF-7 = test: MTT cytotoxicity assay, 72 h; conditions: for IC50: MTT, 72 h, IC50 ± SD; for Selectivity Index (SI) MRC-5/MCF-7: IC50 in MRC-5 / IC50 in MCF-7
# Experimental: as §1, §2, §3
# NCI-H460 = test: MTT cytotoxicity assay, 72 h; conditions: for Experimental pIC50 (NCI-H460): -logIC50 in molar concentration; for Selectivity Index (SI) MRC-5/NCI-H460: IC50 in MRC-5 / IC50 in NCI-H460
# Experimental: as §1, §2, §3
# CACO2 = test: MTT cytotoxicity assay, 72 h
# Experimental: Cytotoxicity assays were performed by using the MTT reduction method as described in the literature [23, 37]. Briefly, cancer cell lines were plated in a flat-bottom 96-wells plate at 1 × 10^4 cells per well density. Then, the cells were incubated with synthetized compounds at different concentrations (from 0.1 to 100 µM) in 200 µL of 10% fetal bovine serum-RPMI or EMEM culture medium at 37 °C for 72 h. Then, 10 µL of MTT was added at a final concentration of 0.5 mg/mL, incubated at 37 °C for 4 h, and then solubilized with 10% sodium dodecyl sulphate (SDS) in 0.1 mM HCl and incubated overnight at 37 °C. Formazan formation was measured at 570 nm in a multi-well reader (StatFax 4200).
# MRC-5 = test: MTT cytotoxicity assay, 72 h, normal control cells; conditions: normal fibroblasts
# Experimental: as §1, §2, §3
# HL-60 cells = test: Cell viability by propidium iodide flow cytometry; conditions: HL-60, 50 μM, 24 h, PI staining
# Text: Next, in order to determinate the cell death type induced by the most promising compounds, we performed a flow cytometry analysis of cell viability in cell line HL-60 treated with the most promising compounds (selected according to their IC50 values and SI). The HL-60 cancer cells were chosen due to their sensitivity to prepared compounds. […] As a preliminary apoptosis filter, propidium iodide (PI) staining was used through flow cytometry analysis which discriminated a population of viable cells impermeable to PI (PI negative) from necrotic cells PI-permeable (PI positive) and apoptotic cells (the difference of the previous two). The results are shown in Figure 7, illustrating that all purine derivatives tested induced apoptosis on HL-60 cells. Around 40% of apoptotic cells were detected in a culture treated with compounds 7a and 7i, 30% by 7e, 7g, and 7h and 70% by 7d and 7j. […] (For dot plots, see Supplementary Information Figures S1–S3.)
# Cell viability was analyzed by flow cytometry as previously described. In this assay, after setting the baseline to exclude cell debris, cells impermeable to propidium iodide (PI negative) are considered as viable. Two populations of PI-permeable dead cells are distinguished based on fluorescence intensity, corresponding to either hypodiploid apoptotic cells or necrotic cells with intact DNA. Here, HL60 cells were incubated with concentrations of 50 µM of each compound for 24 h at 37 °C. Cells were harvested and stained with 10 µg/mL of propidium iodide to determine cell viability. Samples containing roughly 1 × 10^4 cells were evaluated by flow cytometry (FACScanto II; Becton Dickinson, Mountain View, CA) and analyzed using FCS Express v6 software. Three independent biological replicates were performed.
# [1] = MTT, 72 h, IC50 ± SD, read-out: IC50 HL-60
# [2] = MTT, 72 h, IC50 ± SD, read-out: IC50 NCI-H460
# [3] = Homo sapiens, CFPAC-1, IC50 ± SD
# [4] = Homo sapiens, HCT-116, IC50 ± SD
# [5] = Homo sapiens, HL-60, 72 h, MTT, 72 h, IC50 ± SD, read-out: IC50 HL-60
# [6] = Homo sapiens, HL-60, -logIC50 in molar concentration, Table S1, read-out: Experimental pIC50 (HL-60) (converted)
# [7] = Homo sapiens, NCI-H460, 72 h, MTT, 72 h, IC50 ± SD, read-out: IC50 NCI-H460
# [8] = Homo sapiens, Caco-2, IC50 ± SD
# [9] = Homo sapiens, NCI-H460, -logIC50 in molar concentration, Table S2, read-out: Experimental pIC50 (NCI-H460) (converted)
Compound,IC50 (CFPAC-1; IC50 ± SD),IC50 (HCT-116; IC50 ± SD),Experimental pIC50 (HL-60) (HL-60; Table S1),IC50 (HL-60; [1]),IC50 (K562),IC50 (MCF-7),IC50 (NCI-H460; [2]),IC50 (CACO2; IC50 ± SD),IC50 (MRC-5; IC50 ± SD),IC50 (CFPAC-1; [3]),IC50 (HCT-116; [4]),IC50 (HL-60; [5]),IC50 (HL-60; [6]),"IC50 (K562; Homo sapiens, K562, 72 h)","IC50 (MCF-7; Homo sapiens, MCF7, 72 h)",IC50 (NCI-H460; [7]),IC50 (CACO2; [8]),"IC50 (MRC-5; Homo sapiens, MRC5, IC50 ± SD)",IC50 (NCI-H460; [9]),apoptotic cells (HL-60 cells),other results
"CCn1cnc2c(-c3ccc(OC(F)(F)F)cc3)nc(NCC3CCCCC3)nc21 [4c, N-(cyclohexylmethyl)-9-ethyl-6-(4-(trifluoromethoxy)phenyl)-9H-purin-2-amine]",67 ± 1 µM,> 50 µM,4.6021 M,25 ± 5.4 µM,> 25 µM,> 25 µM,64 ± 2 µM,> 100 µM,60 ± 1 µM,,,,,,,,,,,,Experimental pIC50 (NCI-H460) (NCI-H460; Table S2): 4.1938 M
"CCCn1cnc2c(-c3ccc(OC(F)(F)F)cc3)nc(NC3CCCC3)nc21 [4e, N-cyclopentyl-9-propyl-6-(4-(trifluoromethoxy)phenyl)-9H-purin-2-amine]",> 100 µM,> 50 µM,4.7447 M,18 ± 4 µM,> 25 µM,> 25 µM,> 100 µM,> 100 µM,> 100 µM,,,,,,,,,,,,
"CCCn1cnc2c(-c3ccc(OC(F)(F)F)cc3)nc(NC3CCCCC3)nc21 [4f, N-cyclohexyl-9-propyl-6-(4-(trifluoromethoxy)phenyl)-9H-purin-2-amine]",69 ± 1 µM,> 50 µM,5.0088 M,9.8 ± 1.5 µM,> 25 µM,> 25 µM,> 100 µM,> 100 µM,68 ± 1 µM,,,,,,,,,,,,
"CCCn1cnc2c(-c3ccc(OC(F)(F)F)cc3)nc(NCC3CCCCC3)nc21 [4g, N-(cyclohexylmethyl)-9-propyl-6-(4-(trifluoromethoxy)phenyl)-9H-purin-2-amine]",98 ± 5 µM,> 50 µM,4.6778 M,21 ± 5 µM,> 25 µM,> 25 µM,72 ± 2 µM,> 100 µM,> 100 µM,,,,,,,,,,,,Experimental pIC50 (NCI-H460) (NCI-H460; Table S2): 4.1427 M
"CCCn1cnc2c(-c3ccc(OC(F)(F)F)cc3)nc(NC3CCCCCC3)nc21 [4h, N-cycloheptyl-9-propyl-6-(4-(trifluoromethoxy)phenyl)-9H-purin-2-amine]",,,,,,,,,,> 100 µM,> 50 µM,14 ± 1 µM,14 µM,> 25 µM,> 25 µM,> 100 µM,> 100 µM,> 100 µM,,,
"O=[N+]([O-])c1ccc(N2CCN(c3nc(Cl)nc4c3ncn4C3CCCC3)CC2)nc1 [7a, 2-Chloro-9-cyclopentyl-6-(4-(5-nitropyridin-2-yl)piperazin-1-yl)-9H-purine]",,,,,,,5.73 ± 0.37 µM,,,> 100 µM,6.4 ± 1.3 µM,,2.1 µM,0.87 ± 0.01 µM,0.95 ± 0.14 µM,< 10 µM,> 100 µM,> 100 µM,5.73 µM,Around 40%,Selectivity Index (SI) MRC-5/HL-60 (HL-60): > 47.6; Selectivity Index (SI) MRC-5/K562 (K562): > 115; Selectivity Index (SI) MRC-5/MCF-7 (MCF-7): > 105; Selectivity Index (SI) MRC-5/NCI-H460 (NCI-H460): > 17.5
"Clc1nc(N2CCN(c3ccccn3)CC2)c2ncn(C3CCCC3)c2n1 [7b, 2-Chloro-9-cyclopentyl-6-(4-(pyridin-2-yl)piperazin-1-yl)-9H-purine]",,,,,,,,,,> 100 µM,> 50 µM,> 50 µM,,3.06 ± 0.54 µM,5.07 ± 0.9 µM,> 100 µM,> 100 µM,> 100 µM,,,
"Clc1nc(N2CCN(c3cnccn3)CC2)c2ncn(C3CCCC3)c2n1 [7d, 2-Chloro-9-cyclopentyl-6-(4-(pyrazin-2-yl)piperazin-1-yl)-9H-purine]",,,,,,,,,,> 100 µM,> 50 µM,4.6 ± 0.2 µM,4.6 µM,5.86 ± 1.06 µM,> 12.5 µM,8.25 ± 0.11 µM,> 100 µM,17 ± 1 µM,8.25 µM,~70%,Selectivity Index (SI) MRC-5/HL-60 (HL-60): 3.7; Selectivity Index (SI) MRC-5/K562 (K562): 2.9; Selectivity Index (SI) MRC-5/NCI-H460 (NCI-H460): 2.0
"Clc1nc(N2CCC(c3ccccc3)CC2)c2ncn(C3CCCC3)c2n1 [7e, 2-Chloro-9-cyclopentyl-6-(4-phenylpiperidin-1-yl)-9H-purine]",,,,,,,,,,> 100 µM,> 50 µM,3 ± 0.6 µM,3 µM,,,11 ± 1 µM,> 100 µM,> 100 µM,11 µM,~30%,Selectivity Index (SI) MRC-5/HL-60 (HL-60): > 33.3; Selectivity Index (SI) MRC-5/NCI-H460 (NCI-H460): > 9.1
"Clc1nc(N2CCN(c3ccccc3)CC2)c2ncn(C3CCCC3)c2n1 [7f, 2-Chloro-9-cyclopentyl-6-(4-phenylpiperazin-1-yl)-9H-purine]",,,,,,,,,,> 100 µM,> 50 µM,1.3 ± 0.5 µM,1.3 µM,4.22 ± 0.27 µM,6.13 ± 0.25 µM,6.71 ± 0.23 µM,> 100 µM,> 100 µM,6.71 µM,,
"Clc1nc(N2CCN(c3ccncc3)CC2)c2ncn(C3CCCC3)c2n1 [7i, 2-Chloro-9-cyclopentyl-6-(4-(pyridin-4-yl)piperazin-1-yl)-9H-purine]",,,,,,,8.54 ± 0.21 µM,,,> 100 µM,> 50 µM,3.8 ± 1.5 µM,3.8 µM,9.96 ± 0.93 µM,22 ± 1 µM,< 10 µM,> 100 µM,> 100 µM,8.54 µM,Around 40%,Selectivity Index (SI) MRC-5/HL-60 (HL-60): > 26.3; Selectivity Index (SI) MRC-5/K562 (K562): > 10; Selectivity Index (SI) MRC-5/MCF-7 (MCF-7): > 4.5; Selectivity Index (SI) MRC-5/NCI-H460 (NCI-H460): > 11.7
"N.N.[Cl][Pt][Cl] [Cisplatin, reference compound]",3.16 ± 0.1 µM,3.89 ± 1.3 µM,,6.2 ± 0.2 µM,4.67 ± 0.38 µM,10.9 ± 0.8 µM,4.77 ± 0.13 µM,,6.78 ± 0.18 µM,,,,,,,,,,,66%,"IC50 (NCI-H460; MTT, 72 h, IC50 ± SD, listed as cisplatin, read-out: IC50 NCI-H460): 4.8 µM"
N-cycloheptyl-9-ethyl-6-(4-(trifluoromethoxy)phenyl)-9H-purin-2-amine [4d],> 100 µM,> 50 µM,4.6778 M,21 ± 1 µM,> 25 µM,> 25 µM,> 100 µM,> 100 µM,> 100 µM,,,,,,,,,,,,
N-cyclohexyl-9-ethyl-6-(4-(trifluoromethoxy)phenyl)-9H-purin-2-amine [4b],> 100 µM,> 50 µM,,> 50 µM,> 25 µM,> 25 µM,> 100 µM,> 100 µM,> 100 µM,,,,,,,,,,,,
